Reference: patent US6559158B1, “Use of methylnaltrexone and related compounds to treat chronic opioid use side affects” (UR Labs, Inc., priority 1997, dated 2003)
Read-outs that look alike come from different tables or passages of the source.

What was measured:
[1] = Absorption after oral administration of non-enteric coated compound; assay type: in vivo
Experimental: Methylnaltrexone is rapidly absorbed after oral administration from the stomach and bowel. Initial plasma levels of the drug are seen within 5-10 minutes of the administration of non-enteric coated compound. Addition of an enteric coating which prevents gastric absorption is associated with lower plasma levels of the methylnaltrexone.

[2] = test system: chronic methadone subjects; experiment: Example 2: oral-cecal transit time (lactulose hydrogen breath test); assay type: in vivo, human
Experimental: The oral-cecal transit time was assessed by the pulmonary hydrogen (H2) measurement technique, which measures pulmonary H2 that is produced when unabsorbed lactulose is fermented by colonic bacteria and excreted in the breath. This H2 production is reflected by a concomitant increase in breath H2 excretion. […] Dis. Sci., 32:829-832 (1987)). Hydrogen breath tests were conducted every 15 min until oral-cecal transit time was determined.
The oral-cecal transit time was assessed as in Example 1.

[3] = test system: chronic methadone subjects; experiment: Example 2: side effects, vital signs and opioid withdrawal; assay type: in vivo, human
Experimental: Vital signs were obtained at 0, 5, 10, 30, 60, 90 and 120 min after each test drug administration. Illicit drug use was monitored by random urine drug screens.
To evaluate possible opioid withdrawal with methylnaltrexone, before and 10 min after the completion of test drug administration, subjects were asked to complete an objective checklist of withdrawal symptoms modified from Fraser et al. (J. Pharmacol Exp. Ther., 133:371-387 (1961)) and Jasinski (Drug Addiction J., 197-258 (1977)). Items rated (none, mild, moderate, severe) were yawning, lacrimation (excessive tearing), rhinorrhea (nasal discharge), perspiration, tremor, piloerection (goosebumps), and restlessness. The ratings for individual items were translated to a 0-3 scale and summed to give a total symptom score. The total scores before and after test drug administrations were compared between the groups. Potential opioid withdrawal symptoms were also monitored by an investigator throughout the study.

[4] = test system: chronic methadone subjects; experiment: Example 1: side effects, abdominal cramping and central opioid withdrawal; assay type: in vivo, human
Experimental: Vital signs were obtained at 0, 5, 10, 30, 60, 90 and 120 min after each test drug administration. For oral-cecal transit time measurement, 10 g lactulose (Solvay Pharmaceuticals, Marietta, Ga.) was administered orally at 09:00 h of Day 1, Day 5 and Day 8 for Subject 1; of Day 1 for Subject 2, and of Day 1, Day 3 and Day 5 for Subjects 3 and 4. Illicit drug use was monitored by random urine drug screens.
To evaluate possible opioid withdrawal with methylnaltrexone, subjects were asked to rate on a 5-point scale from 0 (not at all) to 4 (extremely) an […] checklist Withdrawal Scale (Fraser et al., J Pharmacol Exp. Ther., 133:371-387 (1961); Jasinski, Drug Addiction J., 197-258 (1977); both herein incorporated by reference). Items to be rated were: muscle cramps, flushing, painful joints, yawning, restless, watery eyes, runny nose, chills or gooseflesh, sick to stomach, sneezing, abdominal cramps, irritable, backache, tense and jittery, sweating, depressed/sad, sleepy, shaky (hands), hot or cold flashes, and bothered by noises. The ratings for individual items were summed for a total score for each scale. The total scores were compared before and after methylnaltrexone administration to see if there was a significant difference.

normal volunteers = details: eight normal volunteers, cited from earlier work
[5] = test system: constipated methadone maintained patients; experiment: Example 3: oral methylnaltrexone, laxation response; assay type: in vivo, human; details: for subjects who had a bowel movement: 4 subjects; for time to bowel movement after oral compound: mean±SD
Experimental: Since oral medication is a safer and more convenient way to deliver drugs than is intravenous administration, the efficacy of oral MNTX in relieving constipation in methadone maintained patients was evaluated. Twelve constipated adults (≦2 stool/week) were enrolled. Their daily methadone dose was 73.3±16.2 mg (41-100 mg), mean±SD (range). On day 1 at 9AM, subjects ingested 10 g lactulose (Solvay Pharmaceuticals) to assess oral-cecal transit time as described above, and a placebo capsule. On day 2 at 9AM, subjects again received lactulose, and a capsule containing methylnaltrexone (Mallinckrodt). Ascending oral methylnaltrexone doses (0.3, 1.0, and 3,0 mg/kg) were given to 3 groups of 4 subjects per group. Drug administrations were single-blinded to the subject. Laxation response and potential opioid withdrawal were recorded and blood samples were collected.

[6] = Example 2: plasma levels and urinary excretion of methylnaltrexone; assay type: in vivo, human; details: for Peak plasma level: iv, mean±SD
Experimental: (§1) After each test drug administration, seven blood samples (5 ml each) were obtained at time 0, 5, 30 min, and 1, 2, 4, 8 h, and three urine samples were collected at time 0, 2, and 4 h. Plasma and urine methylnaltrexone levels were determined by an HPLC technique with a detection limit of 2 ng/ml (Kim et al., 1989; Yuan et al., Clin. Pharmacol Ther., 59:469-475 (1996); both herein incorporated by reference). […] Subjects' bowel movements were witnessed and recorded by a research nurse.
Blood and Urine Sampling and Analysis were Performed as in Example 1.

[7] = Example 1: peak plasma methylnaltrexone level (HPLC); assay type: in vivo, human
Experimental: as §1

[8] = Subjects 3 and 4, 0.05-0.15 mg/kg iv twice daily, 4 days
[9] = iv methylnaltrexone, #1 0.45 mg/kg bid, #2 0.45 mg/kg, #3 and #4 0.05-0.15 mg/kg bid, iv methylnaltrexone 0.45 mg/kg
[10] = iv methylnaltrexone, #1 0.45 mg/kg bid, #2 0.45 mg/kg, #3 and #4 0.05-0.15 mg/kg bid, iv methylnaltrexone 0.05-0.15, bid mg/kg
[11] = iv methylnaltrexone, #1 0.45 mg/kg bid, #2 0.45 mg/kg, #3 and #4 0.05-0.15 mg/kg bid, iv methylnaltrexone 0.05-015, bid mg/kg
[12] = iv methylnaltrexone, #1 0.45 mg/kg bid, #2 0.45 mg/kg, #3 and #4 0.05-0.15 mg/kg bid, iv methylnaltrexone 0.45, bid mg/kg

SMILES: C[N@+]1(CC2CC2)CC[C@]23c4c5ccc(O)c4O[C@H]2C(=O)CC[C@@]3(O)[C@H]1C5 [methylnaltrexone, N-methylnaltrexone bromide]
- time to initial plasma levels after oral administration [1]: 5 to 10 min
- oral-cecal transit time after study drug ([2]; methylnaltrexone group n=11, Day 2, iv, mean±SD, range 30-105, baseline 132.3±36.0): 54.5 ± 19.3 min
- average change in oral-cecal transit time from baseline ([2]; methylnaltrexone group n=11, P<0.001 vs placebo group): -77.7 ± 37.2 min
- abdominal cramping during and immediately after injection ([3]; all subjects of methylnaltrexone group, iv): mild to moderate abdominal cramping
- change in blood pressure or heart rate from baseline ([3]; study drug infusion): No subject demonstrated any clinically significant change
- side effects ([4]; Subject 1, 0.45 mg/kg iv, 7 days of administration): did not experience any significant side effects
- abdominal cramping ([4]; Subject 1, 0.45 mg/kg iv, after each injection): mild abdominal cramping
- signs of systemic withdrawal (lacrimation, diaphoresis, mydriasis, hallucinations) ([4]; Subject 2, single dose 0.45 mg/kg iv): no signs of systemic withdrawal
- abdominal cramping ([4]; Subject 2, single dose 0.45 mg/kg iv over 1 min): severe abdominal cramping
- abdominal cramping [4, 8]: mild abdominal cramping
- side effects [4, 8]: No significant side effects were observed
- Central opioid withdrawal [4, 9]: No
- abdominal cramping [4, 9]: Severe
- Central opioid withdrawal [4, 10]: No
- abdominal cramping [4, 10]: Mild
- Central opioid withdrawal [4, 11]: No
- abdominal cramping [4, 11]: Mild
- Central opioid withdrawal [4, 12]: No
- abdominal cramping [4, 12]: Mild
- side effects (normal volunteers; doses of 0.64 to 1.25 mg/kg): transient orthostatic hypotension
- side effects (normal volunteers; doses up to 0.32 mg/kg): did not cause side effects
- subjects who had a bowel movement ([5]; oral 0.3 mg/kg): 3 out of 4
- time to bowel movement after oral compound ([5]; oral 0.3 mg/kg, range 8-24 hr): 18.0 ± 8.7 h
- subjects who had a bowel movement ([5]; oral 1.0 mg/kg): All subjects
- time to bowel movement after oral compound ([5]; oral 1.0 mg/kg, range 3-24 hr): 12.3 ± 8.7 h
- subjects who had a bowel movement ([5]; oral 3.0 mg/kg): All subjects
- time to bowel movement after oral compound ([5]; oral 3.0 mg/kg, range 1.2-10 hr): 5.2 ± 4.5 h
- Peak plasma level ([6]; Day 1, 11 subjects, range 30-774): 162 ± 237 ng/mL
- percentage of intravenous dose excreted unchanged in urine from 0 to 4 hr ([6]; Day 1, mean±SD, range 9.6-39.9): 23.7±10.5%
- Peak plasma level ([6]; Day 2, 11 subjects, range 33-658): 166 ± 177 ng/mL
- percentage of intravenous dose excreted unchanged in urine from 0 to 4 hr ([6]; Day 2, mean±SD, range 13.2-73.6): 37.6±17.8%
- Peak plasma methylnaltrexone level ([7]; Subject 1, 0.45 mg/kg iv): 1.65 µg/mL
- Peak plasma methylnaltrexone level ([7]; Subject 2, 0.45 mg/kg iv): 1.10 µg/mL
- Peak plasma methylnaltrexone level ([7]; Subject 3, 0.05-0.15 mg/kg iv): 0.25 µg/mL
- Peak plasma methylnaltrexone level ([7]; Subject 4, 0.05-0.15 mg/kg iv): 0.53 µg/mL
